From patent US5364864A, “1,4-disubstituted piperidines, their preparation and their application in therapy” (priority 1991, dated 1994)

Biological target: acetylcholinesterase (Homo sapiens, UniProt P22303)
Experiment: Inhibition of acetylcholinesterase activity (method of Ellman et al.)
Assay type: biochemical

Sequence of acetylcholinesterase (P22303 32-614): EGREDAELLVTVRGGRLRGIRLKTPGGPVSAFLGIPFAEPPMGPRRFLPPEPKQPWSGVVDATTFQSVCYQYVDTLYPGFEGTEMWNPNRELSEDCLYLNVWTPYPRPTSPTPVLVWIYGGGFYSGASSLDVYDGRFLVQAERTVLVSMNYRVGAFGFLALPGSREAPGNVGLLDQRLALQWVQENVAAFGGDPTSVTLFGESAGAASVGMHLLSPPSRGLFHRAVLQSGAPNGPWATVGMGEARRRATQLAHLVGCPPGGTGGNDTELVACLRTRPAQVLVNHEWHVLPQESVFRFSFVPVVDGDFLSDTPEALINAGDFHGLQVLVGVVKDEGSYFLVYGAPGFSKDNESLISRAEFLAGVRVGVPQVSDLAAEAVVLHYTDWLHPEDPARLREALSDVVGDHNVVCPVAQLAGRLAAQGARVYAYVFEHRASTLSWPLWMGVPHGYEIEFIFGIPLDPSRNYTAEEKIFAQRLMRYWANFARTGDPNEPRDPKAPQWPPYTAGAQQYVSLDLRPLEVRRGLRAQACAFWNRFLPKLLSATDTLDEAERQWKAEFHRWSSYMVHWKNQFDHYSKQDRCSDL

For S=C(NCCC1CCN(Cc2ccccc2)CC1)Nc1ccccc1 [Compound 1, 1-Phenyl-3-[2-(1-benzyl-4-piperidyl)ethyl]thiourea], which IC50 is on record?
Its IC50 is 320 nM.
